In experiment [1] the target is T1, Retinoic acid receptor beta (Homo sapiens, UniProt P10826).
T1 sequence (P10826 whole entry): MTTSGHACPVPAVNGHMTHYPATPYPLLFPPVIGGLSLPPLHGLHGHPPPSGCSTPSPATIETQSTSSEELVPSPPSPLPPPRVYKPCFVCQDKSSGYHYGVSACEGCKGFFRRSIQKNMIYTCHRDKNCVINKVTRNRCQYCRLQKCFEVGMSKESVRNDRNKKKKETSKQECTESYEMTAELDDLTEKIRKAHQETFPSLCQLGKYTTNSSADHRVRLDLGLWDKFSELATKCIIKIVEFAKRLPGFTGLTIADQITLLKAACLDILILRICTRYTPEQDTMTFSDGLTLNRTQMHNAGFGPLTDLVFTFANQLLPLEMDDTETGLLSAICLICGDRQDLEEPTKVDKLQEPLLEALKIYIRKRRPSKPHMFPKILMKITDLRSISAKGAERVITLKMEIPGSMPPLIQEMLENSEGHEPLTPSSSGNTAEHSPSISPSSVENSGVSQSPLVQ
Kind of experiment: Binding affinity of [3H]- RA to baculovirus expressed human Retinoic acid receptor beta.

Experiment [2] has as its target T2, Retinoic acid receptor alpha (Homo sapiens, UniProt P10276).
T2 sequence (P10276 whole entry): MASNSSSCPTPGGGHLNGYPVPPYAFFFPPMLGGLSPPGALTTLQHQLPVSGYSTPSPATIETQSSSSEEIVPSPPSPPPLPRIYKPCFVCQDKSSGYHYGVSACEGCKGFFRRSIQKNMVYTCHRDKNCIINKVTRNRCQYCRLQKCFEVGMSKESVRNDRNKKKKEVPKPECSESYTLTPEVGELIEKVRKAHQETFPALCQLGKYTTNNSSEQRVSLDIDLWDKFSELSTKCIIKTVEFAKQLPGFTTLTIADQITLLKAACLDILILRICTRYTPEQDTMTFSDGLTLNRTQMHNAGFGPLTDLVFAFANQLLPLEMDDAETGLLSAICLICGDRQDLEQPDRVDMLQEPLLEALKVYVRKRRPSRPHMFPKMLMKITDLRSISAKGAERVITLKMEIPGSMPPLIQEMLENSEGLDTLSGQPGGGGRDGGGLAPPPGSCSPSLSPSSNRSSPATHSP
Kind of experiment: Binding affinity of [3H]- RA to baculovirus expressed human RAR alpha.

Experiment [3] deals with T3, Retinoic acid receptor gamma (Homo sapiens, UniProt P13631).
T3 sequence (P13631 whole entry): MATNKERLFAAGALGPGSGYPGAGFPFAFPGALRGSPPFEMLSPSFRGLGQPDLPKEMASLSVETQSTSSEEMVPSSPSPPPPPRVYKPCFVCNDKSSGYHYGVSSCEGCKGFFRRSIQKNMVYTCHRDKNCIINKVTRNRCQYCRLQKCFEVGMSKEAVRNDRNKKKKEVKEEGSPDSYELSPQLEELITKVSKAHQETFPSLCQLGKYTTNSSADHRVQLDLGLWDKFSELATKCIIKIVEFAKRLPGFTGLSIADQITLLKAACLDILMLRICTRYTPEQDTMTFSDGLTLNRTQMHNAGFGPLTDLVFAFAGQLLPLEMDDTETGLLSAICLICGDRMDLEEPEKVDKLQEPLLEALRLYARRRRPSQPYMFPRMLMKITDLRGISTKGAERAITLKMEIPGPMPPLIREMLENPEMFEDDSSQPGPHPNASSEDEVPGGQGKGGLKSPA
Kind of experiment: Antagonistic activity against RAR gamma in transcriptional activation assay with 3.2 nM TTNPB. In kind it is functional.

The target of experiment [4] is T3, Retinoic acid receptor gamma. Put plainly: Binding affinity of [3H]- RA to baculovirus expressed human Retinoic acid receptor gamma.
In experiment [5] the target is T2, Retinoic acid receptor alpha. Kind of experiment: Antagonistic activity against RAR alpha in transcriptional activation assay with 32 nM TTNPB. In kind it is functional.
Experiment [6] deals with T1, Retinoic acid receptor beta. Kind of experiment: Antagonistic activity against RAR beta in transcriptional activation assay with 10 nM TTNPB. The experiment is classed as functional.
Experiment [7] has as its target T4, Retinoic acid receptor gamma (Homo sapiens) (UniProt P13631).
T4 sequence (whole entry): T3 sequence (P13631 whole entry)
Kind of experiment: Relative inhibition of TTNPB activity vs background activity(100% inhibition) against RAR gamma. The experiment is classed as functional. To be noted: concentration not given here.

Experiment [8] deals with T5, Retinoic acid receptor beta (Homo sapiens) (UniProt P10826).
T5 sequence (whole entry): T1 sequence (P10826 whole entry)
Put plainly: Relative inhibition of TTNPB activity vs background activity (100% inhibition) against RAR beta. In kind it is functional. To be noted: concentration not given here.

Experiment [9] concerns the target T6, Retinoic acid receptor alpha (Homo sapiens) (UniProt P10276).
T6 sequence (whole entry): T2 sequence (P10276 whole entry)
Put plainly: Relative inhibition of TTNPB activity vs background activity (100% inhibition) against RAR alpha. The experiment is classed as functional. To be noted: concentration not given here.

Experiment [10] is filed under the species Mus musculus. Put plainly: Compound was tested for cutaneous toxicity score in mice at a dose of 3.6 nmol/25 g. The experiment is classed as functional.
The species named for experiment [11] is Mus musculus. Put plainly: Compound was tested for its effect on body weight gain in mice at a dose of 3.6 nmol/25 g. The experiment is classed as functional.
The species named for experiment [12] is Mus musculus. Put plainly: Compound was tested for abrasion score in mice at a dose of 3.6 nmol/25 g. In kind it is functional.
Experiment [13] is filed under the species Mus musculus. Kind of experiment: Compound was tested for flaking score in mice at a dose of 3.6 nmol/25 g. The experiment is classed as functional.
Experiment [14] is filed under the species Mus musculus. Put plainly: Compound was tested for cutaneous toxicity score in mice at a dose of 3.6 nmol/25 g of TTNPB and 28.8 nmol/25 g of the compound. The experiment is classed as functional.
Experiment [15] is filed under the species Mus musculus. Put plainly: Compound was tested for flaking score in mice at a dose of 3.6 nmol/25 g of TTNPB and 7.2 nmol/25 g of the compound. The experiment is classed as functional.
Experiment [16] is filed under the species Mus musculus. Put plainly: Compound was tested for its effect on body weight gain in mice at a dose of 3.6 nmol/25 g of TTNPB and 28.8 nmol/25 g of the compound. The experiment is classed as functional.
The species named for experiment [17] is Mus musculus. Kind of experiment: Compound was tested for abrasion score in mice at a dose of 3.6 nmol/25 g of TTNPB and 28.8 nmol/25 g of the compound. The experiment is classed as functional.
Experiment [18] is filed under the species Mus musculus. Kind of experiment: Compound was tested for flaking score in mice at a dose of 3.6 nmol/25 g of TTNPB and 28.8 nmol/25 g of the compound. In kind it is functional.
The species named for experiment [19] is Mus musculus. Put plainly: Compound was tested for its effect on body weight gain in mice at a dose of 3.6 nmol/25 g of TTNPB and 7.2 nmol/25 g of the compound. In kind it is functional.
The species named for experiment [20] is Mus musculus. Kind of experiment: Compound was tested for cutaneous toxicity score in mice at a dose of 3.6 nmol/25 g of TTNPB and 7.2 nmol/25 g of the compound. The experiment is classed as functional.
For experiment [21], the species on record is Mus musculus. Put plainly: Compound was tested for abrasion score in mice at a dose of 3.6 nmol/25 g of TTNPB and 7.2 nmol/25 g of the compound. In kind it is functional.

For `Cc1ccc(C2=CCC(C)(C)c3cc4ccc(-c5ccc(C(=O)O)cc5)cc4cc32)cc1` [listing 1 of 2 here], the Kd (commonly the concentration at which binding is half-saturated) in [1] was 4 nM; in experiment [2], 13 nM; in experiment [4], 7 nM. The concentration for half-maximal inhibition (IC50) – broadly, the midpoint of a concentration-inhibition curve – in experiment [3] came out at 2 nM; in experiment [5], 20 nM; in experiment [6], 22 nM.

As to `Cc1ccc(C2=CCC(C)(C)c3cc4ccc(-c5ccc(C(=O)O)cc5)cc4cc32)s1`, the Kd in [1] is 6 nM; in [2], 15 nM; in experiment [4] it was 11 nM. Also, the inhibition – broadly, the percentage by which the read-out fell short of the control – came to 96% in experiment [7], 83% in experiment [8] and 95% in experiment [9]. Further, the figures for the IC50 in experiment [3], in [5] and in [6] were 2 nM, 20 nM and 15 nM, respectively.

For `Cc1ccc(C2=CC(C)(C)Sc3cc4ccc(-c5ccc(C(=O)O)cc5)cc4cc32)s1`, the values for the Kd in experiment [1], in experiment [2] and in [4] were 13 nM, 13 nM and 18 nM, respectively.

Consider `C/C(=C\c1ccc(C(=O)O)cc1)c1ccc2c(c1)C(C)(C)CCC2(C)C`, for which, in experiment [10], the Cutaneous toxicology score was determined as 11. Besides, in experiment [11], the Gain was 6%. In addition, the Abrasion score in [12] is given as 2. Besides, in [13], the Flaking score is given as 3.

Turning to `Cc1ccc(C2=CC(C)(C)Sc3cc4ccc(-c5ccc(C(=O)O)cc5)cc4cc32)cc1` [listing 1 of 2 here], the inhibition in experiment [7] was 98%; in [8], 98%; in [9], 97%.

For `Cc1ccc(C2=CC(C)(C)Sc3cc4ccc(-c5ccc(C(=O)O)cc5)cc4cc32)cc1` [listing 2 of 2 here], the Kd came to 6 nM in experiment [1], 5.5 nM in experiment [2] and 5 nM in [4]. In addition, the IC50 in [3] came to 0.5 nM; in experiment [5], 1.5 nM; in [6] it was 2 nM.

As for `C/C(=C\c1ccc(C(=O)O)cc1)c1ccc2c(c1)C(C)(C)CCC2(C)C.Cc1ccc(C2=CC(C)(C)Oc3cc4ccc(-c5ccc(C(=O)O)cc5)cc4cc32)s1`, the Cutaneous toxicology score in experiment [14] amounted to 3; in experiment [20] it was 4.6. Also, the Flaking score in [15] and in [18] was 2 in each case. For the same molecule, the values for the Gain in [16] and in experiment [19] were 1% and 6%, respectively. The values for the Abrasion score in experiment [17] and in [21] were 1 and 3, respectively.

Consider `C/C(=C\c1ccc(C(=O)O)cc1)c1ccc2c(c1)C(C)(C)CCC2(C)C.Cc1ccc(C2=CC(C)(C)Oc3cc4ccc(-c5ccc(C(=O)O)cc5)cc4cc32)cc1`, for which the Cutaneous toxicology score turned out to be 1 in experiment [14] and 1.9 in experiment [20]. For the same molecule, the Flaking score in experiment [15] and in experiment [18] was 1 in each case. The Gain is on record as 2% in [16] and 3% in experiment [19]. In addition, the results for the Abrasion score in [17] and in experiment [21] were 0 and 1, respectively.

With `C/C(=C\c1ccc(C(=O)O)cc1)c1ccc2c(c1)C(C)(C)CCC2(C)C.Cc1ccc(C2=CCC(C)(C)c3cc4ccc(-c5ccc(C(=O)O)cc5)cc4cc32)cc1`, the Cutaneous toxicology score is recorded as 1.1 in [14] and 2 in experiment [20]. The Flaking score in [15] and in experiment [18] was 1 throughout. Also, the figures for the Gain in experiment [16] and in experiment [19] were 5% and 2%, respectively. In addition, the Abrasion score turned out to be 0 in experiment [17] and 1 in [21].

As for `Cc1ccc(C2=CC(C)(C)Oc3cc4ccc(-c5ccc(C(=O)O)cc5)cc4cc32)s1`, the inhibition amounted to 97% in [7], 98% in experiment [8] and 97% in [9]. Moreover, the results for the IC50 in experiment [3], in experiment [5] and in [6] were 4 nM, 6.5 nM and 6.5 nM, respectively.

Consider `C/C(=C\c1ccc(C(=O)O)cc1)c1ccc2c(c1)C(C)(C)CCC2(C)C.Cc1ccc(C2=CC(C)(C)Sc3cc4ccc(-c5ccc(C(=O)O)cc5)cc4cc32)cc1`, for which the Cutaneous toxicology score in experiment [14] was determined as 0.7; in experiment [20], 1.4. Also, the Flaking score in experiment [15] and in experiment [18] was 1 each time. Also, the results for the Gain in experiment [16] and in [19] were 0% and 5%, respectively. In addition, the Abrasion score in experiment [17] and in experiment [21] was 0 each time.

Take `Cc1ccc(C2=CCC(C)(C)c3cc4ccc(-c5ccc(C(=O)O)cc5)cc4cc32)cc1` [listing 2 of 2 here]: the figures for the inhibition in experiment [7], in experiment [8] and in [9] were 98%, 97% and 97%, respectively.

Take `Cc1ccc(C2=CC(C)(C)Oc3cc4ccc(-c5ccc(C(=O)O)cc5)cc4cc32)cc1` [listing 1 of 2 here]: the results for the dissociation constant (Kd) in experiment [1], in experiment [2] and in [4] were 7 nM, 14 nM and 14 nM, respectively. Further, the values for the IC50 in [3], in [5] and in [6] were 2 nM, 5.5 nM and 7.5 nM, respectively.

As to `Cc1ccc(C2=CC(C)(C)Oc3cc4ccc(-c5ccc(C(=O)O)cc5)cc4cc32)cc1` [listing 2 of 2 here], the inhibition in [7] was determined as 98%; in experiment [8], 98%; in experiment [9] it was 97%.

The values above are taken from ChEMBL document CHEMBL1132062, “A new class of potent RAR antagonists: dihydroanthracenyl, benzochromenyl and benzothiochromenyl retinoids” (Bioorg Med Chem Lett, 1999).
